Test results published in paper PMC4753328, “Muscle-Type Nicotinic Receptor Blockade by Diethylamine, the Hydrophilic Moiety of Lidocaine” (Frontiers in Molecular Neuroscience, 2016).
pEC50, pIC50: −log10 of the molar value.

Legend:
[1] = target: T1, muscle-type nicotinic acetylcholine receptor (nAChR) (Torpedo marmorata, UniProt P02711+Q6S3H8+Q6S3H9+Q6S3I0); assay: two-electrode voltage clamp, ACh concentration-current curve (agonist); assay type: cell-based
T1 construct: gene CHRNA1; native nAChR purified from electroplax, reconstituted in asolectin lipids and microtransplanted to Xenopus oocytes; with β, γ and δ subunits of the heteropentamer
T1 sequence (P02711 25-461): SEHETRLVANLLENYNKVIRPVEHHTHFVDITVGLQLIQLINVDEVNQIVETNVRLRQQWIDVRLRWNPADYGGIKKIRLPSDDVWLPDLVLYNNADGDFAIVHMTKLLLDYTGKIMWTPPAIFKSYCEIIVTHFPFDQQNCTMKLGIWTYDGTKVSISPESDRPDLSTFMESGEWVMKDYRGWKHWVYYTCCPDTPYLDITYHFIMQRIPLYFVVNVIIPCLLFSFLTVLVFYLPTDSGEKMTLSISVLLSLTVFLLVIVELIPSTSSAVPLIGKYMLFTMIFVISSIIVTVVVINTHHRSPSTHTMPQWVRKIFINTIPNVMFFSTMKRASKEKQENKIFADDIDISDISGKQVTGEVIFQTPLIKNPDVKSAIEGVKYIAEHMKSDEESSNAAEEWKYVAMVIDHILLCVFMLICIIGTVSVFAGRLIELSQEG
T1 sequence (Q6S3I0 25-493): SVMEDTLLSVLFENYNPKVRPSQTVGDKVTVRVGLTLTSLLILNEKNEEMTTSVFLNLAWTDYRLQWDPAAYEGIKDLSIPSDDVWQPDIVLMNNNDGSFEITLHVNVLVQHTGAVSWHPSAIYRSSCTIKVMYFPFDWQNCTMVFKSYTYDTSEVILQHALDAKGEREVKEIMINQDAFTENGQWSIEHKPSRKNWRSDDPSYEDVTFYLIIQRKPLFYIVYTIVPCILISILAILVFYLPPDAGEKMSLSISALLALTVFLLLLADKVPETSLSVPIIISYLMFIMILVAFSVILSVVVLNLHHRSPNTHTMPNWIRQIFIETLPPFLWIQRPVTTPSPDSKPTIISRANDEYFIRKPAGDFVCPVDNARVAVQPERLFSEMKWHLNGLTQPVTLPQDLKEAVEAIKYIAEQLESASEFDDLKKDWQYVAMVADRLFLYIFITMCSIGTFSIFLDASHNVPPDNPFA
T1 sequence (Q6S3H9 18-505): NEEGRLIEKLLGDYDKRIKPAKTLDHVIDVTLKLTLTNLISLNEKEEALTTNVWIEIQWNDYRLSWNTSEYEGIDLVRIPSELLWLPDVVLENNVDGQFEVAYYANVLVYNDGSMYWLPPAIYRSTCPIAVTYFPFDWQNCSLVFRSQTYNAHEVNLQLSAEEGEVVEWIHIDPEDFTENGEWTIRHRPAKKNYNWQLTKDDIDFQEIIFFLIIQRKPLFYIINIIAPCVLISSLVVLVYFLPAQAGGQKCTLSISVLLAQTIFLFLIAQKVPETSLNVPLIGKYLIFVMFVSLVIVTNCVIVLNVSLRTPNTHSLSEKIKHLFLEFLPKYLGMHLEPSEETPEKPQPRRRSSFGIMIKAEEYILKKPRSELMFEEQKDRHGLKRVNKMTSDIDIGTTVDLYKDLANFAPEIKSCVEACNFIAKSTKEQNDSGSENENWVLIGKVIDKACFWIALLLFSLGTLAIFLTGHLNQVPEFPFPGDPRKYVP
T1 sequence (Q6S3H8 22-522): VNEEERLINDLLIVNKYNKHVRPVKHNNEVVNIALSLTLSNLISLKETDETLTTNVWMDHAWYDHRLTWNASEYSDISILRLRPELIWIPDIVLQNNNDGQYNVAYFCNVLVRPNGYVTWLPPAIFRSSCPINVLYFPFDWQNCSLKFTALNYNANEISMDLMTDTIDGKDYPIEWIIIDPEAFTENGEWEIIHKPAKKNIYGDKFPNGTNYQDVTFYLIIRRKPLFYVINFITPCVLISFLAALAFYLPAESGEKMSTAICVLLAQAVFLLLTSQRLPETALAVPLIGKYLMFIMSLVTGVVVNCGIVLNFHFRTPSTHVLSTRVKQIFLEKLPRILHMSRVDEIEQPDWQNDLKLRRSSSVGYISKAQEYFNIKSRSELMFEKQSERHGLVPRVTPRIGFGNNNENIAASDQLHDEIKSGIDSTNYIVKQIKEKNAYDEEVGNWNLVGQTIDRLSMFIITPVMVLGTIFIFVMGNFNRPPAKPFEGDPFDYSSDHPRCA

[2] = target: T1, muscle-type nicotinic acetylcholine receptor (nAChR); assay: two-electrode voltage clamp, inhibition of currents evoked by […] ACh at −[…] mV; assay type: cell-based

| SMILES | pEC50 [1] | pIC50 [2] |
| --- | --- | --- |
| CC(=O)OCC[N+](C)(C)C [ACh, acetylcholine] | 4.34 |  |
| CCNCC [DEA, diethylamine] |  | 4.17 |
